The values below are quoted from earlier work in patent US20060240101A1, “Orally disintegrating pharmaceutical tablet formulations of olanzapine” (priority 2005, published 2006).

For the data set the following is noted: for water solubility: at 20° C.

Regarding `OC[C@@H](O)[C@@H](O)[C@H](O)[C@H](O)CO` [Pearlitol® 50C, mannitol], the water solubility result is “approximately 250 g/l”.

On to `OC[C@@H](O)[C@@H](O)[C@H](O)[C@H](O)CO` [Pearlitol® 200 SD, mannitol], for which the water solubility result was “approximately 170 g/l”.

`Cc1cc2c(s1)Nc1ccccc1N=C2N1CCN(C)CC1` [olanzapine, 2-methyl-4-(4-methyl-1-piperanzinyl)-10H-thieno[2,3-b][1,5] benzodiazepine]: the solubility in water entry (2005 Physician Desk Reference label information for Zyprexa) is “insoluble in water”.
